Assay results taken from patent publication US6864287B1, “Derivatives of dicarboxylic acid having pharmaceutical properties” (Bayer Aktiengesellschaft, priority 1999, dated 2005).
Values belong to the compound of their own block, whether it stands above or below them.

Legend:
arteria saphena = experiment: Vasorelaxant action in vitro (phenylephrin-contracted artery rings); set-up: species or system Rabbits; conditions: Oryctolagus cuniculus; rabbit arteria saphena rings, contraction induced by phenylephrin; read-out: IC50 (concentration reducing the phenylephrin-induced contraction by 50%)
Experimental: Vaso Relaxant Action in Vitro
Rabbits are anaesthetized by intravenous injection of thiopental sodium […] (about 50 mg/kg) and exsanguinated. The arteria saphena is removed and divided into 3 mm wide rings. The rings are individually mounted on in each case one triangular pair of hooks, open at the end, made of 0.3 mm strong special wire (Remanium®). Under a pretension, each ring is transferred into 5 ml organ baths containing a warm, carbogen-aerated Krebs-Henseleit solution at 37° C. having the following composition (mM): NaCl: 119; KCl: 4.8; CaCl2×2H2O: 1; MgSO4×7H2O: 1.4; KH2PO4: 1.2; NaHCO3: 25; glucose: 10; bovine serum albumin: 0.001%. The contractility is detected using Statham UC2 cells, amplified and digitalized by means of A/D converters (DAS-1802 HC, Keithley Instruments Munich), and recorded in parallel on linear recorders. Contractions are induced by addition of phenylephrin.
After several (in general 4) control cycles, the substance to be investigated is added in each further passage in increasing dosage, and the height of the contraction achieved under the influence of the test substance is compared with the height of the contraction achieved in the last preliminary passage. From this, the concentration which is necessary in order to reduce the contraction achieved in the preliminary control by 50% (IC50) is calculated. The standard administration volume is 5 μl. The proportion of DMSO in the bath solution corresponds to 0.1%.

Heme-containing sGC = molecular target: T1, Heme-containing sGC (Rattus norvegicus, UniProt P20595); experiment: Stimulation of recombinant soluble guanylate cyclase (sGC) in vitro, heme-containing enzyme; assay type: biochemical
T1 construct: made in house; host or cells: baculovirus/Sf9 insect cells
T1 sequence (P20595 1-619): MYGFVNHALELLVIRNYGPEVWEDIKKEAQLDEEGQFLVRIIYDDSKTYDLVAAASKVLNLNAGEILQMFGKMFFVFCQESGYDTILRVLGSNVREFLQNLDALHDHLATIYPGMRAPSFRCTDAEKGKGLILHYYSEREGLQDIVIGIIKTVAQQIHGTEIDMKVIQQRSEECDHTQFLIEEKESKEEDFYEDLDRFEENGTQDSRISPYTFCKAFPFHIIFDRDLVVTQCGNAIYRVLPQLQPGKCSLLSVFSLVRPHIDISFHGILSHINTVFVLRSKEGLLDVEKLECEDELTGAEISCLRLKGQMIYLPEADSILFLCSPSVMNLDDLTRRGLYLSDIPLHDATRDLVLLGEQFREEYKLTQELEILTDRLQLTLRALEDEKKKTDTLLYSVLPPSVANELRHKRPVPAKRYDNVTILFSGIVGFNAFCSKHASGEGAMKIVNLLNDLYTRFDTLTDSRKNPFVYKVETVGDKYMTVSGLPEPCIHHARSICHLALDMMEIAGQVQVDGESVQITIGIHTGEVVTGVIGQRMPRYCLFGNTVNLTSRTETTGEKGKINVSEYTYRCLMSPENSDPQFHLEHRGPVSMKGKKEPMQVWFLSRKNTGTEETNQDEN
T1 sequence (P19686 1-690 partner): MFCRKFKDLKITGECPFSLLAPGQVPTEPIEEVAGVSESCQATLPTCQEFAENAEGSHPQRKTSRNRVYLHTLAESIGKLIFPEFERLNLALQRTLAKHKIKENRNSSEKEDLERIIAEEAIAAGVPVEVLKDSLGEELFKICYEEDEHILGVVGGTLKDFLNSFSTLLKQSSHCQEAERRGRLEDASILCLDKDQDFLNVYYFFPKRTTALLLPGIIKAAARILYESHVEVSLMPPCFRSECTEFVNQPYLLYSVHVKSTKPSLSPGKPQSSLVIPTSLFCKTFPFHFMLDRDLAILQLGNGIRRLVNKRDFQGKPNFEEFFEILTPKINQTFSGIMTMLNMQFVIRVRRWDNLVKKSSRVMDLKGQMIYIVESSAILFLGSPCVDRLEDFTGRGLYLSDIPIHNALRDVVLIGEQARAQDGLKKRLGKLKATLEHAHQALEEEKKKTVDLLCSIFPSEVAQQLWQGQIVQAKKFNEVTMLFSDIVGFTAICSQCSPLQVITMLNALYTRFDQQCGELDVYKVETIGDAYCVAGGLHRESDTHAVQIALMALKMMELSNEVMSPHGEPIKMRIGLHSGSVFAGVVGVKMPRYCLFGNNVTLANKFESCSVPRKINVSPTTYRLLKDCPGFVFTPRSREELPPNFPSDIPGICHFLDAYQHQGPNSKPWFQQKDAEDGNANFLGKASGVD
Experimental: (§1) Stimulation of Recombinant Soluble […] Cyclase (sGC) in Vitro
(§2) The investigation on the stimulation of recombinant soluble guanylate cyclase (sGC) and the compounds according to the invention with and without sodium nitroprusside and with and without the heme-dependent sGC inhibitor 1H-1,2,4-oxadiazole-(4,3a)-quinoxalin-1-one (ODQ) were carried out by the method described in detail in the following literature reference: M. Hoenicka, E. M. Becker, H. Apeler, T. Sirichoke, H. Schroeder. R Gerzer and J.-P. Stasch: Purified soluble guanylyl cyclase expressed in baculovirus/Sf9 system: stimulation by YC-1, nitric oxide, and carbon oxide. J. Mol, Med. 77 (1999): 14-23.
(§3) Activation of sGC by a test substance is stated as n-fold stimulation of basal activity.

Heme-free sGC = molecular target: T2, Heme-free sGC (Rattus norvegicus, UniProt P20595); experiment: Stimulation of recombinant soluble guanylate cyclase (sGC) in vitro, heme-free enzyme; assay type: biochemical
T2 construct: made in house; host or cells: baculovirus/Sf9 insect cells
T2 sequence (P20595 1-619): T1 sequence (P20595 1-619)
T2 sequence (P19686 1-690 partner): T1 sequence (P19686 1-690 partner)
Experimental: as §1, §2
Heme-free guanylate cyclase was obtained by adding Tween 20 to the sample buffer (final concentration 0.5%).
as §3

- IC50 (arteria saphena): 0.112 µM
Structure (SMILES): Cc1ccc(/C=C/C(CCCCC(=O)O)Cc2ccc(C(=O)O)cc2)c(OCc2ccccc2)c1 (centres unmarked) [Example 12]

- IC50 (arteria saphena): 2.6 µM
Structure (SMILES): N#Cc1ccc(CC(/C=C/c2ccccc2OCCCCCc2ccccc2)CCCCC(=O)O)cc1 (centres unmarked) [Example 13]

- IC50 (arteria saphena): 0.0087 µM
Structure (SMILES): O=C(O)CCCCC(/C=C/c1ccccc1OCc1ccccc1Cl)Cc1ccc(C(=O)O)cc1 (centres unmarked) [Example 14]

- Stimulation (n-fold), + ODQ (10 μM) (Heme-containing sGC; 0.1 μM Ex. 16): 27 n-fold
- Stimulation (n-fold), + ODQ (10 μM) (Heme-containing sGC; 1.0 μM Ex. 16): 52 n-fold
- Stimulation (n-fold), + ODQ (10 μM) (Heme-containing sGC; 10 μM Ex. 16): 88 n-fold
- Stimulation (n-fold), + SNP (0.1 μM) (Heme-containing sGC; 0.1 μM Ex. 16): 14 n-fold
- Stimulation (n-fold), + SNP (0.1 μM) (Heme-containing sGC; 1.0 μM Ex. 16): 33 n-fold
- Stimulation (n-fold), + SNP (0.1 μM) (Heme-containing sGC; 10 μM Ex. 16): 29 n-fold
- Stimulation (n-fold), Basal (Heme-containing sGC; 0.1 μM Ex. 16): 4 n-fold
- Stimulation (n-fold), Basal (Heme-containing sGC; 1.0 μM Ex. 16): 9 n-fold
- Stimulation (n-fold), Basal (Heme-containing sGC; 10 μM Ex. 16): 19 n-fold
- IC50 (arteria saphena): 0.005 µM
- Stimulation (n-fold), + ODQ (10 μM) (Heme-free sGC; 0.1 μM Ex. 16): 12 n-fold
- Stimulation (n-fold), + ODQ (10 μM) (Heme-free sGC; 1.0 μM Ex. 16): 94 n-fold
- Stimulation (n-fold), + ODQ (10 μM) (Heme-free sGC; 10 μM Ex. 16): 291 n-fold
- Stimulation (n-fold), Basal (Heme-free sGC; 0.1 μM Ex. 16): 11 n-fold
- Stimulation (n-fold), Basal (Heme-free sGC; 1.0 μM Ex. 16): 54 n-fold
- Stimulation (n-fold), Basal (Heme-free sGC; 10 μM Ex. 16): 204 n-fold
Structure (SMILES): O=C(O)CCCCC(/C=C/c1ccccc1OCCCCCc1ccccc1)Cc1ccc(C(=O)O)cc1 (centres unmarked) [Example 16]

- IC50 (arteria saphena): 0.026 µM
Structure (SMILES): O=C(O)CCCCC(/C=C/c1ccccc1CCc1ccccc1)Cc1ccc(C(=O)O)cc1 (centres unmarked) [Example 23]

- IC50 (arteria saphena): 6.2 µM
Structure (SMILES): O=C(O)CCCCC(/C=C/c1ccccc1OCCCOc1ccccc1)Cc1ccc(C(=O)O)cc1 (centres unmarked) [Example 24]

- IC50 (arteria saphena): 0.00035 µM
Structure (SMILES): CC(C)(C)c1ccc(COc2ccccc2/C=C/C(CCCCC(=O)O)Cc2ccc(C(=O)O)cc2)cc1 (centres unmarked) [Example 34]

- IC50 (arteria saphena): 0.0017 µM
Structure (SMILES): CCc1ccc(COc2ccccc2/C=C/C(CCCCC(=O)O)Cc2ccc(C(=O)O)cc2)cc1 (centres unmarked) [Example 35]

- IC50 (arteria saphena): 0.041 µM
Structure (SMILES): O=C(O)CCCCC(CCc1ccccc1CCc1ccccc1)Cc1ccc(C(=O)O)cc1 (centres unmarked) [Example 40]

- IC50 (arteria saphena): 0.0028 µM
Structure (SMILES): O=C(O)CCCCC(CCc1ccccc1OCCCCCc1ccccc1)Cc1ccc(C(=O)O)cc1 (centres unmarked) [Example 41]

Structure (SMILES): O=C(O)CCCCC(CCCc1cccc(OCCCCc2ccccc2)c1)Cc1ccc(C(=O)O)cc1 (centres unmarked) [Example 44, 6-(4Carboxybenzyl)-9-(3-(4-phenylbutoxy)phenyl)nonanoic acid]
- IC50 (arteria saphena): 7.8 µM

- IC50 (arteria saphena): 0.608 µM
Structure (SMILES): O=C(O)CCCCC(/C=C/c1ccccc1OCCCCCc1ccccc1)Cc1ccccc1C(=O)O (centres unmarked) [Example 60]

- Stimulation (n-fold), ODQ alone (Heme-containing sGC; ODQ 10 μM, no Ex. 16 (0 μM)): 1 n-fold
- Stimulation (n-fold), ODQ alone (Heme-free sGC; ODQ 10 μM, no Ex. 16 (0 μM)): 1 n-fold
Structure (SMILES): O=c1onc2cnc3ccccc3n12 [ODQ, 1H-1,2,4-oxadiazole-(4,3a)-quinoxalin-1-one, reference compound]
